Reference: patent US20240360157A1, “TYK2 INHIBITORS” (BIOGEN MA INC., priority 2021, published 2024)

Key:
Type in all cases: biochemical
[1] = molecular target: human JAK3 catalytic kinase (JH1) domain (Homo sapiens (Human), UniProt P52333); experiment: ADP-Glo Kinase Assay, recombinant JAK3 catalytic kinase (JH1) domain; conditions: recombinant JH1 domain 0.3 nM, 4 μM ATP, JAK3-974 peptide, mean, read-out: JAK3 biochem IC50 (nM) Mean
Protocol: (§1) Compounds of the disclosure were assessed for their ability to inhibit TYK2, JAK1, JAK2, and JAK3 activity. The inhibitory properties of the compounds of the disclosure described herein can be evidenced by testing in any one of the following protocols.
(§2) The kinase activity of recombinantly generated catalytic kinase (also known as JH1) domain of human JAK1, JAK2, JAK3 and TYK2 were evaluated in a plate-based assay using the ADP-Glo™ Kinase Assay platform. Specifically, 4 nM of recombinant JAK1 kinase domain is used to phosphorylate 50 μM of a JAK3-342 (sequence ALVDGYFRLTT) peptide in the presence of 35 μM ATP. Catalytic activities of recombinant JAK2, JAK3 and TYK2 kinase domain (0.2, 0.3 and 2 nM, respectively) are evaluated by the phosphorylation status of the JAK3-974 (50 μM; sequence LPLDKDYYVVR) peptide with the addition of ATP (15, 4 and 10 μM, respectively). The reactions proceed for 100 minutes and the catalytic activity is quantified by first depleting the unused ATP, converting the hydrolyzed ADP into ATP to generate luminescence in a luciferase reaction; which is the basis of the ADP-Glo platform. Compounds are tested at either 10 μM or 1 μM top concentration, 11 points of 3-fold dilution. The data is normalized and the percent activity versus log concentration of compound is fitted with a 4-parameter logistic model to generate a curve and an IC50 value.

[2] = molecular target: human JAK2 catalytic kinase (JH1) domain (Homo sapiens (Human), UniProt O60674); experiment: ADP-Glo Kinase Assay, recombinant JAK2 catalytic kinase (JH1) domain; conditions: recombinant JH1 domain 0.2 nM, 15 μM ATP, JAK3-974 peptide, mean, read-out: JAK2 biochem IC50 (nM) Mean
Sequence of human JAK2 catalytic kinase (JH1) domain (O60674 849-1124): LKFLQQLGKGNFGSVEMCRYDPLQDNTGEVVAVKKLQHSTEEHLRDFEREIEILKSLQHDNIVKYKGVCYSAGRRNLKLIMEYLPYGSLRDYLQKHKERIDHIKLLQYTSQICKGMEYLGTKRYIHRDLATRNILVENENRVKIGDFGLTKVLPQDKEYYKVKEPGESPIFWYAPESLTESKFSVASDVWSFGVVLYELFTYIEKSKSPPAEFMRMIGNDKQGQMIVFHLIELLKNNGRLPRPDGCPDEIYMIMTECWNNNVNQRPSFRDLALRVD
Protocol: as §1, §2

[3] = molecular target: human TYK2 catalytic kinase (JH1) domain (Homo sapiens (Human), UniProt P29597); experiment: ADP-Glo Kinase Assay, recombinant TYK2 catalytic kinase (JH1) domain; conditions: recombinant JH1 domain 2 nM, 10 μM ATP, JAK3-974 peptide, mean, read-out: TYK2 biochem IC50 (nM) Mean
Sequence of human TYK2 catalytic kinase (JH1) domain (P29597 897-1176): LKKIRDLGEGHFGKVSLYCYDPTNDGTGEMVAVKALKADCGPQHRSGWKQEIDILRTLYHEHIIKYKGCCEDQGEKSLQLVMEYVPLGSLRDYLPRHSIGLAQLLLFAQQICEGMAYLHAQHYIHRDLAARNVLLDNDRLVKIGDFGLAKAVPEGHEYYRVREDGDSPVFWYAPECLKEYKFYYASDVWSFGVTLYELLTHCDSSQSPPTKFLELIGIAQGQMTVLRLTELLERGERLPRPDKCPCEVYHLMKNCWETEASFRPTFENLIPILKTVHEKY
Protocol: as §1, §2

[4] = molecular target: human JAK1 catalytic kinase (JH1) domain (Homo sapiens (Human), UniProt P23458); experiment: ADP-Glo Kinase Assay, recombinant JAK1 catalytic kinase (JH1) domain; conditions: recombinant JH1 domain 4 nM, 35 μM ATP, JAK3-342 peptide, mean, read-out: JAK1 biochem IC50 (nM) Mean
Sequence of human JAK1 catalytic kinase (JH1) domain (P23458 875-1153): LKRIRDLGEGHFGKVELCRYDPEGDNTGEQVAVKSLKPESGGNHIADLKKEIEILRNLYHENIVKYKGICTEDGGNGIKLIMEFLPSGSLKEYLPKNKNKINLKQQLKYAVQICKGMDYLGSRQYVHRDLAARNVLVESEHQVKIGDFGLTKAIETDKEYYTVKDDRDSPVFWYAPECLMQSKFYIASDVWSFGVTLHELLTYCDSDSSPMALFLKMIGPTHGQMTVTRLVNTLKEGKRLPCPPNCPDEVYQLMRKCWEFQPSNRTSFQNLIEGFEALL
Protocol: as §1, §2

Sequence of human JAK3 catalytic kinase (JH1) domain (P52333 822-1111): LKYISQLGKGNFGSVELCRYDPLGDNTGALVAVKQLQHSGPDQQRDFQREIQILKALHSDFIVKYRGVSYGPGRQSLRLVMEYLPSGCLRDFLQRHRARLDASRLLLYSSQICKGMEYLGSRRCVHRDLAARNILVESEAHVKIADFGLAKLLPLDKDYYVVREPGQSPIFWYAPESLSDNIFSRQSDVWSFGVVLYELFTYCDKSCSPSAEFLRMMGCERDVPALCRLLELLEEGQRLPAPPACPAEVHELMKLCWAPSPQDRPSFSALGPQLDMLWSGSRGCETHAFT

Row | Compound | IC50 [1] [nM] | IC50 [2] [nM] | IC50 [3] [nM] | IC50 [4] [nM]
1 | Cn1cc(-c2cc3c(N4CC5CCC(C4)N5C(=O)[C@H]4C[C@@H]4C#N)ncnn3c2)cn1 (racemic) [Example 66, Rac-(1S,2S)-2-(3-(6-(1-methyl-1H-pyrazol-4-yl)pyrrolo[2,1-f][1,2,4]triazin-4-yl)-3,8-diazabicyclo[3.2.1]octane-8-carbonyl)cyclopropane-1-carbonitrile] | 5540 | 3610 | 242 | 1510
2 | O=C([C@H]1C[C@@H]1CO)N1C2CCC1CN(c1ncnn3cc(-c4cnn(C(F)F)c4)cc13)C2 (single isomer, unassigned) [Example 39] | 6380 | 9090 | 762 | 2130
3 | O=C([C@@H]1C[C@H]1CO)N1C2CCC1CN(c1ncnn3cc(-c4cnn(C(F)F)c4)cc13)C2 (single isomer, unassigned) [Example 40] | ≥ 10000 | 9400 | 289 | 5120
4 | O=C([C@H]1C[C@H]1F)N1C2CCC1CN(c1ncnn3cc(-c4cnn(C(F)F)c4)cc13)C2 (single isomer, unassigned) [Example 73] | 8860 | ≥ 10000 | 987 | 2350
5 | Cn1cc(-c2cc3c(N4CC5CCC(C4)N5C(=O)[C@@H]4C[C@H]4C#N)ncnn3c2)cn1 (single isomer, unassigned) [Example 74] | 4040 | 1910 | 126 | 1280
6 | O=C([C@H]1C[C@@H]1F)N1C2CCC1CN(c1ncnn3cc(-c4cnn(C(F)F)c4)cc13)C2 (single isomer, unassigned) [Example 75] | 5060 | ≥ 10000 | 456 | 1580
7 | O=C([C@H]1CC1(F)F)N1C2CCC1CN(c1ncnn3cc(-c4cnn(C(F)F)c4)cc13)C2 (single isomer, unassigned) [Example 77] | 8880 | 1410 | 46.3 | 1290
8 | N#C[C@@H]1C[C@H]1C(=O)N1C2CCC1CN(c1ncnn3cc(-c4cnn(C(F)F)c4)cc13)C2 (single isomer, unassigned) [Example 78] | 6880 | 1510 | 120 | 869
9 | Cn1cc(-c2cc3c(N4CC5CCC(C4)N5C(=O)[C@H]4C[C@H]4F)ncnn3c2)cn1 (single isomer, unassigned) [Example 79] | ≥ 10000 | ≥ 10000 | 626 | 9330
10 | Cn1cc(-c2cc3c(N4CC5CCC(C4)N5C(=O)[C@H]4C[C@@H]4F)ncnn3c2)cn1 (single isomer, unassigned) [Example 81] | 5610 | 1450 | 31.2 | 1420
11 | Cn1cc(-c2cc3c(N4CC5CCC(C4)N5C(=O)[C@H]4C[C@H]4C#N)ncnn3c2)cn1 (single isomer, unassigned) [Example 85] | 4450 | 10000 | 751 | 3310
12 | O=C([C@@H]1C[C@H]1F)N1C2CCC1CN(c1ccnn3cc([C@H]4CC4(F)F)cc13)C2 (single isomer, unassigned) [Example 135] | ≥ 10000 | 8220 | 125 | 2010
13 | O=C([C@@H]1C[C@H]1F)N1C2CCC1CN(c1ccnn3cc([C@@H]4CC4(F)F)cc13)C2 (single isomer, unassigned) [Example 136] | ≥ 10000 | ≥ 10000 | 381 | 6180
14 | Cn1cc(-c2cn3ncc(F)c(N4CC5CCC(C4)N5C(=O)[C@@H]4C[C@H]4F)c3n2)cn1 (stereo in doubt) [Example 141, (3-(7-fluoro-2-(1-methyl-1H-pyrazol-4-yl)imidazo[1,2-b]pyridazin-8-yl)-3,8-diazabicyclo[3.2.1]octan-8-yl)((1S,2R)-2-fluorocyclopropyl)methanone] | 285 | 97 | 9.4 | 57
15 | COc1cc(-c2cn3ncc(F)c(N4CC5CCC(C4)N5C(=O)[C@@H]4C[C@H]4F)c3n2)ccn1 (stereo in doubt) [Example 142, (3-(7-fluoro-2-(2-methoxypyridin-4-yl)imidazo[1,2-b]pyridazin-8-yl)-3,8-diazabicyclo[3.2.1]octan-8-yl)((1S,2R)-2-fluorocyclopropyl)methanone] | 514 | 270 | 19.6 | 46
16 | O=C([C@@H]1C[C@H]1F)N1C2CCC1CN(c1ncnn3cc(-c4cnn(C(F)F)c4)cc13)C2 [Example 1, (3-(6-(1-(difluoromethyl)-1H-pyrazol-4-yl)pyrrolo[2,1-f][1,2,4]triazin-4-yl)-3,8-diazabicyclo[3.2.1]octan-8-yl)((1S,2R)-2-fluorocyclopropyl)methanone] | 1300 | 315 | 9 | 228
17 | Cn1cc(-c2cc3c(N4CC5CCC(C4)N5C(=O)[C@@H]4C[C@H]4F)ncnn3c2)cn1 [Example 2, ((1S,2R)-2-fluorocyclopropyl)(3-(6-(1-methyl-1H-pyrazol-4-yl)pyrrolo[2,1-f][1,2,4]triazin-4-yl)-3,8-diazabicyclo[3.2.1]octan-8-yl)methanone] | 820 | 292 | 4.7 | 324
18 | O=C([C@@H]1CC1(F)F)N1C2CCC1CN(c1ncnn3cc(-c4cnn(C(F)F)c4)cc13)C2 [Example 3, ((S)-2,2-difluorocyclopropyl)(3-(6-(1-(difluoromethyl)-1H-pyrazol-4-yl)pyrrolo[2,1-f][1,2,4]triazin-4-yl)-3,8-diazabicyclo[3.2.1]octan-8-yl)methanone] | 6160 | 714 | 27.8 | 653
19 | O=C([C@H]1C[C@@H]1F)N1C2CCC1CN(c1ncnn3cc(-c4cnn(C(F)F)c4)cc13)C2 [Example 4, (3-(6-(1-(difluoromethyl)-1H-pyrazol-4-yl)pyrrolo[2,1-f][1,2,4]triazin-4-yl)-3,8-diazabicyclo[3.2.1]octan-8-yl)((1R,2S)-2-fluorocyclopropyl)methanone] | 776 | 1450 | 73.6 | 452
20 | CC1C(C(=O)N2C3CCC2CN(c2ncnn4cc(-c5cnn(C(F)F)c5)cc24)C3)C1(F)F (stereo not drawn) [Example 5, (2,2-difluoro-3-methylcyclopropyl)(3-(6-(1-(difluoromethyl)-1H-pyrazol-4-yl)pyrrolo[2,1-f][1,2,4]triazin-4-yl)-3,8-diazabicyclo[3.2.1]octan-8-yl)methanone] | 3700 | 3050 | 93.1 | 707
21 | Cn1cc(-c2cc3c(N4CC5CCC(C4)N5C(=O)[C@H]4C[C@@H]4F)ncnn3c2)cn1 [Example 6, ((1R,2S)-2-fluorocyclopropyl)(3-(6-(1-methyl-1H-pyrazol-4-yl)pyrrolo[2,1-f][1,2,4]triazin-4-yl)-3,8-diazabicyclo[3.2.1]octan-8-yl)methanone] | 827 | 2260 | 133 | 682
22 | O=C(C1C(F)(F)C12CCC2)N1C2CCC1CN(c1ncnn3cc(-c4cnn(C(F)F)c4)cc13)C2 (stereo not drawn) [Example 7, (3-(6-(1-(difluoromethyl)-1H-pyrazol-4-yl)pyrrolo[2,1-f][1,2,4]triazin-4-yl)-3,8-diazabicyclo[3.2.1]octan-8-yl)(2,2-difluorospiro[2.3]hexan-1-yl)methanone] | 6300 | 3960 | 156 | 960
23 | O=C([C@H]1CC1(F)F)N1C2CCC1CN(c1ncnn3cc(-c4cnn(C(F)F)c4)cc13)C2 [Example 8, ((R)-2,2-difluorocyclopropyl)(3-(6-(1-(difluoromethyl)-1H-pyrazol-4-yl)pyrrolo[2,1-f][1,2,4]triazin-4-yl)-3,8-diazabicyclo[3.2.1]octan-8-yl)methanone] | 1690 | 3740 | 200 | 226
24 | O=C(C1CCC1F)N1C2CCC1CN(c1ncnn3cc(-c4cnn(C(F)F)c4)cc13)C2 (stereo not drawn) [Example 9, (3-(6-(1-(difluoromethyl)-1H-pyrazol-4-yl)pyrrolo[2,1-f][1,2,4]triazin-4-yl)-3,8-diazabicyclo[3.2.1]octan-8-yl)(2-fluorocyclobutyl)methanone] | 5780 | 5700 | 202 | 3080
